Measurements as given in ChEMBL document CHEMBL5331078, “1-Benzyloxy-5-phenyltetrazole derivatives highly active against androgen receptor-dependent prostate cancer cells” (Eur J Med Chem, 2023).
Activity calls are given as the source filed them. The rule behind the calls is not given here.

Legend:
[1] = Volume of distribution at steady state in rat at 5 mg/kg, iv measured upto 24 hrs by LC-MS/MS analysis; assay type: ADME, organism-based; settings: in vivo, read-out: Vdss
CWR22R [2] = assay: Downregulation of RRM2 gene expression in human 22Rv1 cells at 1 uM measured after 24 to 36 hrs by RNA sequencing analysis; assay type: functional, cell-based; settings: time 24-36 hrs
CWR22R [3] = assay: Downregulation of CDC7 gene expression in human 22Rv1 cells at 1 uM measured after 24 to 36 hrs by RNA sequencing analysis; assay type: functional, cell-based; settings: time 24-36 hrs
[4] = Metabolic stability in mouse liver microsomes assessed as half life incubated for 60 mins in presence of NADPH-regenerating system; assay type: ADME, Microsome; settings: liver microsomes
CWR22R [5] = assay: Downregulation of DDC gene expression in human 22Rv1 cells at 1 uM measured after 24 to 36 hrs by RNA sequencing analysis; assay type: functional, cell-based; settings: time 24-36 hrs
[6] = MRT (0 to t) in rat at 5 mg/kg, iv measured upto 24 hrs by LC-MS/MS analysis; assay type: ADME, organism-based; settings: in vivo
CWR22R [7] = assay: Downregulation of androgen receptor in human 22Rv1 cells measured for 24 to 36 hrs by Western blot analysis; assay type: functional, cell-based; settings: dose 0.5-10 µM, time 24-36 hrs
CWR22R [8] = assay: Downregulation of BRCA2 gene expression in human 22Rv1 cells at 1 uM measured after 24 to 36 hrs by RNA sequencing analysis; assay type: functional, cell-based; settings: time 24-36 hrs
[9] = AUC (0 to infinity) in rat at 5 mg/kg, iv measured upto 24 hrs by LC-MS/MS analysis; assay type: ADME, organism-based; parameters: time < 24 hrs, dose 5 mg/kg, route iv; settings: in vivo
CWR22R [10] = assay: Downregulation of RAD51D gene expression in human 22Rv1 cells at 1 uM measured after 24 to 36 hrs by RNA sequencing analysis; assay type: functional, cell-based; settings: time 24-36 hrs
CWR22R [11] = assay: Downregulation of CDC6 gene expression in human 22Rv1 cells at 1 uM measured after 24 to 36 hrs by RNA sequencing analysis; assay type: functional, cell-based; settings: time 24-36 hrs
[12] = Elimination rate constant in rat at 5 mg/kg, iv measured upto 24 hrs by LC-MS/MS analysis; assay type: ADME, organism-based; settings: in vivo
CWR22R [13] = assay: Downregulation of AR-v7 level in human 22Rv1 cells at 0.5 to 10 uM by Western blot analysis; assay type: functional, cell-based; settings: dose 0.5-10 µM, time 24-36 hrs, TDE = time-dependent effect
CWR22R [14] = assay: Downregulation of GINS1 gene expression in human 22Rv1 cells at 1 uM measured after 24 to 36 hrs by RNA sequencing analysis; assay type: functional, cell-based; settings: time 24-36 hrs
[15] = Antiproliferative activity against Ar-luc mouse Adipose stromal cell measured after 3 days by celltiter-glo luminescence assay; assay type: toxicity, cell-based; settings: Ar-luc mouse adipose stromal cells
CWR22R [16] = assay: Downregulation of GREB1L gene expression in human 22Rv1 cells at 1 uM measured after 24 to 36 hrs by RNA sequencing analysis; assay type: functional, cell-based; settings: time 24-36 hrs
CWR22R [17] = assay: Downregulation of E2F gene expression in human 22Rv1 cells at 1 uM measured after 24 to 36 hrs by RNA sequencing analysis; assay type: functional, cell-based; settings: time 24-36 hrs
CWR22R [18] = assay: Downregulation of POLE2 gene expression in human 22Rv1 cells at 1 uM measured after 24 to 36 hrs by RNA sequencing analysis; assay type: functional, cell-based; settings: time 24-36 hrs
CWR22R [19] = assay: Downregulation of MCM10 gene expression in human 22Rv1 cells at 1 uM measured after 24 to 36 hrs by RNA sequencing analysis; assay type: functional, cell-based; settings: time 24-36 hrs
CWR22R [20] = assay: Downregulation of PCNA gene expression in human 22Rv1 cells at 1 uM measured after 24 to 36 hrs by RNA sequencing analysis; assay type: functional, cell-based; settings: time 24-36 hrs
CWR22R [21] = assay: Downregulation of UHRF1 gene expression in human 22Rv1 cells at 1 uM measured after 24 to 36 hrs by RNA sequencing analysis; assay type: functional, cell-based; settings: time 24-36 hrs
CWR22R [22] = assay: Downregulation of AR-v7 level in human 22Rv1 cells measured for 24 to 36 hrs by Western blot analysis; assay type: functional, cell-based; settings: dose 0.5-10 µM, time 24-36 hrs
CWR22R [23] = assay: Downregulation of CDC25A gene expression in human 22Rv1 cells at 1 uM measured after 24 to 36 hrs by RNA sequencing analysis; assay type: functional, cell-based; settings: time 24-36 hrs
CWR22R [24] = assay: Antiproliferative activity against AR-v7 positive human 22Rv1 cells measured after 3 days by celltiter-glo luminescence assay; assay type: functional, cell-based; settings: Homo sapiens, 22Rv1, 72 h; read-out: IC50
[25] = AUC (0 to t) in rat at 5 mg/kg, iv measured upto 24 hrs by LC-MS/MS analysis; assay type: ADME, organism-based; parameters: dose 5 mg/kg, time < 24 hrs, route iv; settings: in vivo
CWR22R [26] = assay: Downregulation of Androgen receptor level in human 22Rv1 cells at 0.5 to 10 uM measured after 36 hrs by Western blot analysis; assay type: functional, cell-based; settings: dose 0.5-10 µM
CWR22R [27] = assay: Downregulation of CDK2 gene expression in human 22Rv1 cells at 1 uM measured after 24 to 36 hrs by RNA sequencing analysis; assay type: functional, cell-based; settings: time 24-36 hrs
CWR22R [28] = assay: Downregulation of FEN1 gene expression in human 22Rv1 cells at 1 uM measured after 24 to 36 hrs by RNA sequencing analysis; assay type: functional, cell-based; settings: time 24-36 hrs
CWR22R [29] = assay: Downregulation of MYC gene expression in human 22Rv1 cells at 1 uM measured after 24 to 36 hrs by RNA sequencing analysis; assay type: functional, cell-based; settings: time 24-36 hrs
CWR22R [30] = assay: Downregulation of MYB gene expression in human 22Rv1 cells at 1 uM measured after 24 to 36 hrs by RNA sequencing analysis; assay type: functional, cell-based; settings: time 24-36 hrs
CWR22R [31] = assay: Downregulation of MTBP gene expression in human 22Rv1 cells at 1 uM measured after 24 to 36 hrs by RNA sequencing analysis; assay type: functional, cell-based; settings: time 24-36 hrs
[32] = Partition coefficient, logD of the compound at pH 7.4 by HPLC analysis; assay type: physicochemical; settings: octanol/water
CWR22R [33] = assay: Downregulation of E2F1 gene expression in human 22Rv1 cells at 1 uM measured after 24 to 36 hrs by RNA sequencing analysis; assay type: functional, cell-based; settings: time 24-36 hrs
[34] = Kinetic solubility of the compound in 0.01 M HCl at pH 2 after 30 mins by nephelometry; assay type: physicochemical; settings: read-out: Kinetic_solubility
[35] = Metabolic stability in mouse liver microsomes assessed as intrinsic clearance incubated for 60 mins in presence of NADPH-regenerating system; assay type: ADME, Microsome; settings: liver microsomes, read-out: CLH
CWR22R [36] = assay: Downregulation of DNMT1 gene expression in human 22Rv1 cells at 1 uM measured after 24 to 36 hrs by RNA sequencing analysis; assay type: functional, cell-based; settings: time 24-36 hrs
Papain = target: T1, Papain (Carica papaya, UniProt P00784); assay: Inhibition of papaya papain protease activity assessed as covalent binding mode of action at 10 uM incubated for 30 mins by absorbance based analysis; settings: 0.5 h
T1 sequence (P00784 whole entry): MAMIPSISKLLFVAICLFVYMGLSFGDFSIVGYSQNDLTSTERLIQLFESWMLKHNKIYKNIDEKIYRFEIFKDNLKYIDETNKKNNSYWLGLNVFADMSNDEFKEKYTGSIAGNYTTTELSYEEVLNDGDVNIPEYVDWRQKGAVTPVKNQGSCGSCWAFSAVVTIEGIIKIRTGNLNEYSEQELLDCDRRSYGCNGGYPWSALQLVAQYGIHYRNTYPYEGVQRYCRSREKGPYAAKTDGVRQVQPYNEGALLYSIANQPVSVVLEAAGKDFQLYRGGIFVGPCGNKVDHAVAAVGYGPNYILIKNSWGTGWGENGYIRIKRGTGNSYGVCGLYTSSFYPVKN

CWR22R [37] = assay: Downregulation of BRCA1 gene expression in human 22Rv1 cells at 1 uM measured after 24 to 36 hrs by RNA sequencing analysis; assay type: functional, cell-based; settings: time 24-36 hrs

With `Clc1ccc(COn2nnnc2-c2ccc(Cl)cc2)cc1` the Vd [1] was 1.53 L/kg, the Activity (CWR22R [2]) was “Active” and the Activity (CWR22R [3]) was “Active”. For the same molecule, the half-life [4] was 21 min, the Activity (CWR22R [5]) was “Active” and the MRT last at 24 h [6] was 16.3 min. For the same molecule, the Activity (CWR22R [7]) was “Dose-Dependent Effect”, the Activity (CWR22R [8]) was “Active” and the AUC(0-inf) [9] was 1100 ng·h/mL. For the same molecule, the Activity (CWR22R [10]) was “Active”, the Activity (CWR22R [11]) was “Active” and the k el at 24 h [12] was 0.000292 s⁻¹. For the same molecule, the Activity (CWR22R [13]) was “Tde”, the Activity (CWR22R [14]) was “Active” and the IC50 at 3 days [15] was over 100000 nM. For the same molecule, the Activity (CWR22R [16]) was “Active”, the Activity (CWR22R [17]) was “Active” and the Activity (CWR22R [18]) was “Active”. For the same molecule, the Activity (CWR22R [19]) was “Active”, the Activity (CWR22R [20]) was “Active” and the Activity (CWR22R [21]) was “Active”. The Activity (CWR22R [22]) was “Dose-Dependent Effect”, the Activity (CWR22R [23]) was “Active” and the IC50 (CWR22R [24]) was 11 nM. For the same molecule, the AUC(0-t) at 24 h [25] was 1080 ng·h/mL, the Activity (CWR22R [26]) was “Active” and the Activity (CWR22R [27]) was “Active”. For the same molecule, the Activity (CWR22R [28]) was “Active”, the Activity (CWR22R [29]) was “Active” and the Activity (CWR22R [30]) was “Active”. For the same molecule, the Activity (CWR22R [31]) was “Active”, the logD [32] was 4.5 and the Activity (CWR22R [33]) was “Active”. The solubility kinetic at 0.5 h [34] was under 1.6 µg/mL, the microsomal CLint [35] was 21 µL/min/mg and the Activity (CWR22R [36]) was “Active”. The “inhibition (INH)” value (Papain) was “Not Active” and the Activity (CWR22R [37]) was “Active”.
